# Reference: ChEMBL document CHEMBL1201862, “PubChem BioAssay data set” (2004)
# The source made the active and inactive calls.
# What was measured:
# [1] = biological target: T1, Sentrin-specific protease 7 (Homo sapiens, UniProt Q9BQF6); format: functional;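 note: Luminescence-based dose-response confirmation of ultra-high-throughput screening hits, measuring inhibition of SENP7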
# T1 sequence (Q9BQF6 whole entry): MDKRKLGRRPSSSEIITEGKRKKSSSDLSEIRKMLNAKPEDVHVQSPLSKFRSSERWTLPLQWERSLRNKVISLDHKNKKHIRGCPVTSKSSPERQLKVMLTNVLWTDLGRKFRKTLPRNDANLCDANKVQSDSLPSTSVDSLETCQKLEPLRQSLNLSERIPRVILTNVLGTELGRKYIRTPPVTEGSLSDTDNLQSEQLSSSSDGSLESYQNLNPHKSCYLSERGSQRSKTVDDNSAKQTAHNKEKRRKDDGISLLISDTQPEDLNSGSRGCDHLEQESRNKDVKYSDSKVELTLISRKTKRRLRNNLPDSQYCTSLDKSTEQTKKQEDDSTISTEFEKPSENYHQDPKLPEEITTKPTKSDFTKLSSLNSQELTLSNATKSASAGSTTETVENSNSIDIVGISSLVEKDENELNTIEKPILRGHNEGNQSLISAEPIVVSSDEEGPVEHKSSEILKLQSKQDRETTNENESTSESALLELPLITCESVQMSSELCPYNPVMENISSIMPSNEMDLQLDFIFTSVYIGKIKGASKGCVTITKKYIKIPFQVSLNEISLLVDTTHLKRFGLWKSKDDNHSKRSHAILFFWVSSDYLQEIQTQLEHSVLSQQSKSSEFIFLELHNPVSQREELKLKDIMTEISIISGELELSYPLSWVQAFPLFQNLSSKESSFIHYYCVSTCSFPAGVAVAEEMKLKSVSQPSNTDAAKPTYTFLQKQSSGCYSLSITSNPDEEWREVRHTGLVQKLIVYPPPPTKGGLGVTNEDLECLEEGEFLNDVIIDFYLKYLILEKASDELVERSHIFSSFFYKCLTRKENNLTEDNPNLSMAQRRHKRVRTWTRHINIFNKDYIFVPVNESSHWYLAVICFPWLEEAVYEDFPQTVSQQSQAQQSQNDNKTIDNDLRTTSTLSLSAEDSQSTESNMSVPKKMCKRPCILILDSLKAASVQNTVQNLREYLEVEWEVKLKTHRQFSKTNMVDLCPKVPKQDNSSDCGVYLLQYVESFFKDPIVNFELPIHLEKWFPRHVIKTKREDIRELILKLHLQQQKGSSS
# [2] = biological target: Tyrosyl-DNA phosphodiesterase 2 (Homo sapiens, UniProt O95551); experiment: human TDP2 enzyme inhibitors, dose response, biochemical, epi absorbance, IC50 (AID 743297)
# Tyrosyl-DNA phosphodiesterase 2, sequence (O95551 whole entry): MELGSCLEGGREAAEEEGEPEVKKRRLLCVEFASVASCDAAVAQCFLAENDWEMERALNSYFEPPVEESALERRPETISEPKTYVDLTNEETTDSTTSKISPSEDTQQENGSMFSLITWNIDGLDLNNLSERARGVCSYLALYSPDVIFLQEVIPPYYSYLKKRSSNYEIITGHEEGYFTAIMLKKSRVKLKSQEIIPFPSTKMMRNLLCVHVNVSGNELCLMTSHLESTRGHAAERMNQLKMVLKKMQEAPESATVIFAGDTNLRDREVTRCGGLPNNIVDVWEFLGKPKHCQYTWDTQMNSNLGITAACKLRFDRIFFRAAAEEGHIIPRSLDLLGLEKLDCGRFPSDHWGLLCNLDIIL
# Streptokinase A = biological target: T2, Streptokinase A (Streptococcus pyogenes serotype M1, UniProt P10520); experiment: S. pyogenes streptokinase expression inhibitors, potency, dose response, plasminogen activation absorbance, OD405 (AID 1914); format: functional, Streptococcus pyogenes M1 GAS;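 note: secreted streptokinase activity via plasminogen activation per viability signal from cell pellet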
# T2 sequence (P10520 whole entry): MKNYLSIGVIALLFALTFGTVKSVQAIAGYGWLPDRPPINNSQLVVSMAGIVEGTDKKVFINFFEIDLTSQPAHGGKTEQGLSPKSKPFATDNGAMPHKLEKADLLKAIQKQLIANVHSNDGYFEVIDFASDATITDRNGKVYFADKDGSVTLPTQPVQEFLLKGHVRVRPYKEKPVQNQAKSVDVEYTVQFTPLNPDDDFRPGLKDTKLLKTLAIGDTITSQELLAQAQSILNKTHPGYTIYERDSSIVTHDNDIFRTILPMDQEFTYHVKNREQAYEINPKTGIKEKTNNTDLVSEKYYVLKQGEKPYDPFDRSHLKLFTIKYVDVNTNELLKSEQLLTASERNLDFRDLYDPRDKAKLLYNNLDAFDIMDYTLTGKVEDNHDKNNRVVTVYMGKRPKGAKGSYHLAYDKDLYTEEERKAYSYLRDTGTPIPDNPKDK
structure (smiles),measurement,setting,value
Clc1ccc(C2=CSC3=Nc4cccc5cccc(c45)N23)cc1,IC50,[1],5.65 µM (active)
same,IC50,[2],> 128 µM (inactive)
same,EC50,Streptokinase A,> 150 µM (not active)
